Patent US20120004289A1, “ANNEXIN A11 AND ASSOCIATED GENES AS BIOMARKERS FOR CANCER” (The Johns Hopkins University, priority 2009, published 2012)

What was measured:
Type in all cases: cell-based, human
[1] = tested on: annexin A11 mRNA; assay: siRNA knockdown of annexin A11, real-time PCR of mRNA in 2008 cells; conditions: siRNA 40 nM, 3 days, compared with negative control cells (-Ctr), P<0.05
Protocol: (§1) (A and B) Effect of silencing of annexin A11 using different siRNA. 2008 cells were treated with one (A1 or A2 or A3) or a combination (A1-3) of three stealth RNA against annexin A11 or nonspecific sequence (-Ctr) at the concentration of 40 nM or without treatment (Wt) for 3 days. Immunoblot analysis (A) and real-time PCR (B) were performed to confirm the suppression of annexin A11 mRNA and protein expressions in the cells. β-Actin was taken as an additional control for equal sampling in immunoblot analysis (A). The relative mRNA expression level of each sample was normalized to GAPDH expression and compared with -Ctr sample. *P<0.05 (B). (C) Dose-dependent silencing of annexin A11 by siRNA. 2008 cells were treated with RNAi (A1) at the indicated concentrations of 40, 20, 10, or 5 nM or -Ctr at the concentration of 40 nM or without treatment (Wt) for 3 days. Immunoblot analysis (C) was performed to check the annexin A11 expression levels in the cells. β-Actin was taken as an additional control for equal sampling. (D) Duration of silencing of annexin A11 using siRNA. 2008 or HEY cells were treated with RNAi (A1) or -Ctr at the concentration of 40 nM. Immunoblot analysis was performed to analyze the annexin A11 expression levels in these cells.
All stealth RNA interference (RNAi) sequences were purchased from Invitrogen. The three stealth RNAi that targeted different annexin A11 sequences were as follows: A1, […]; A2, […]; and A3, […]. The stealth RNAi negative control duplex (medium GC) was used as a negative control. […] The optimized dose and duration of RNAi silencing were experimentally determined. […]
(Invitrogen) according to the manufacturer's instructions. […] An experiment consisted of triplicate amplification reactions for each gene product being analyzed. […] The cycle threshold number (CT) was determined for each PCR using iQ5 Real-time PCR Detection System (Bio-Rad). […] Results are expressed as relative abundance of a specific mRNA between control and experimental sample (fold change, mean±SD).

[2] = tested on: annexin A11 protein; assay: siRNA knockdown of annexin A11, immunoblot analysis in 2008 cells; conditions: for annexin A11 protein expression (immunoblot): siRNA 40 nM, compared with strong expression in -Ctr and Wt cells
Protocol: as §1
All stealth RNA interference (RNAi) sequences were purchased from Invitrogen. The three stealth RNAi that targeted different annexin A11 sequences were as follows: A1, […]; A2, […]; and A3, […]. The stealth RNAi negative control duplex (medium GC) was used as a negative control. Transfection of annexin A11-specific siRNA and the negative control was performed using Lipofectamine 2000 (Invitrogen). The optimized dose and duration of RNAi silencing were experimentally determined. Briefly, cancer cells were seeded the day before siRNA transfection in either six-well plates or T25 flasks and were 30% to 50% confluent at the time of transfection. Stealth RNAi and Lipofectamine were diluted in Opti-MEM I Medium (Invitrogen), and 40 nM of the siRNA duplex was used in each transfection mixture. 2008 or HEY cells were transfected with one annexin A11-specific siRNA (A1 or A2 or A3) or a combination of three different siRNA at the equal amount (A1-3) or negative control for 2 to 3 days and were then harvested for the downstream experiments.
The denatured samples were electrophoresed on 4% to 15% gradient SDS-PAGE gels (Bio-Rad), electroblotted on nitrocellulose membranes (Bio-Rad), and probed with the respective antibodies against different targets. Both anti-annexin A11 (1:10,000) and anti-annexin A5 (1:2000) monoclonal antibodies were purchased from BD Biosciences (San Jose, Calif.). Rabbit anti-human HMOX1 polyclonal antibody (1:500) and mouse polyclonal anti-LY6D (1:500) were purchased from GenWay Biotech (San Diego, Calif.) and Novus Biologicals (Littleton, Colo.), respectively. The bound antibodies were visualized with horseradish peroxidase-conjugated secondary antibodies and enhanced chemiluminescence (Amersham, Pittsburgh, Pa.). Actin in the corresponding cell lysates was used as an additional control to show equal loading.

[3] = tested on: annexin A11 protein; assay: siRNA knockdown of annexin A11, immunoblot analysis in HEY cells; conditions: after 2 days of siRNA transfection at 40 nM
Protocol: as §1, with “Immunoblot analysis was performed to analyze the annexin A11 expression levels in these cells.” left out
All stealth RNA interference (RNAi) sequences were purchased from Invitrogen. […] The optimized dose and duration of RNAi silencing were experimentally determined. […]

[4] = tested on: 2008 cells; assay: Cell proliferation assay (CCK-8) after annexin A11 siRNA, 2008 cells; conditions: siRNA 40 nM 3 days, compared with negative control transfectants, P<0.05
Protocol: (§2) (A and B) Cell proliferation assay. 2008 (A) or HEY (B) cells were treated with RNAi (A1) or -Ctr at the concentration of 40 nM for 3 days, respectively, and then plated at 3000 viable cells per well into 96-well plates. Every 24 hours, one plate was subjected to assay by CCK-8 kit. The data in each time point are averaged values from eight replicates (P<0.05). (C) Colony formation assay. 2008 cells were treated in the same way as above for 3 days and then plated at 3000 viable cells per well into six-well plates. Six days after plating, cells were fixed with methanol and stained with 0.1% crystal violet and colonies were counted. The experiment was performed in six replicates (P<0.01). (D) Cell cytotoxicity assay. 2008 cells were treated in same way as above for 3 days and then plated at 3000 viable cells per well into 96-well plates. […]
(§3) Cell Counting Kit-8 (CCK-8; Dojindo, Gaithersburg, Md.) was used in cell proliferation assay. […] Cells were then collected by trypsinization, counted by using a hemacytometer with trypan blue dye, and plated at 3000 viable cells per well into 96-well tissue culture plates in a final volume of 100 μl. […] The absorbance at 450 nm was measured with a microplate reader (EL 312e; Biotek Instruments, Winooski, Vt.). […]

[5] = tested on: HEY cells; assay: Cell proliferation assay (CCK-8) after annexin A11 siRNA, HEY cells; conditions: siRNA 40 nM 3 days, compared with negative control transfectants, P<0.05
Protocol: as §2, §3

[6] = tested on: 2008 cells; assay: Cell colony formation assay after annexin A11 siRNA, 2008 cells; conditions: siRNA 40 nM 3 days, colonies counted six days after plating, P<0.01
Protocol: as §2
2008 and HEY cells were cultured in T25 flasks and transfected with A1 or negative control for 3 days. Cells were then collected, counted, and plated at 3000 viable cells per well into six-well plates. Six days after plating, cells were fixed with methanol and stained with 0.1% crystal violet, and colonies were counted under the light microscope. […]

Substance | down-regulation in annexin A11 mRNA expression levels [1] | silencing effect on annexin A11 expression by concentration (immunoblot) ([2]; 5 to 40 nM, 3 days) | duration of silencing of annexin A11 protein expression ([2]; after 3 days of siRNA transfection at 40 nM) | annexin A11 protein expression (immunoblot) ([2]; 3 days) | duration of silencing of annexin A11 protein expression [3] | decrease in rate of proliferation [4] | decrease in rate of proliferation [5] | colony formation ability [6]
A1: stealth RNAi (Invitrogen) targeting annexin A11, GGCCGUGGUGAAAUGUCUCAAGAAU (chemistry not given here) | three-fold to four-fold | dose-dependent silencing effect | ≥ 10 days | barely detectable | ≥ 7 days | 40% | 34% | greatly damaged
A3: stealth RNAi (Invitrogen) targeting annexin A11, GGGAUUACCGGAAGAUUCUGCUGAA (chemistry not given here) | three-fold to four-fold | – | – | barely detectable | – | – | – | –
A2: stealth RNAi (Invitrogen) targeting annexin A11, CCUCCUGGACAUCAGAUCAGAGUAU (chemistry not given here) | three-fold to four-fold | – | – | barely detectable | – | – | – | –
